The data set deals with Solanum lycopersicum. Description: Phytotoxicity against Lycopersicon esculentum L. var. Marmande at 0.05 to 0.1 mg/mL by tomato cutting assay. Type of data set: organism-based. The following applies: in vivo.

As for `C[C@H](O)[C@H]1C=CC(C2CCC(=O)O2)O1` (some centres not stated) [DIPLOBIFURANYLONE B], the Activity entry is “Non-toxic”. As for `C[C@H](O)[C@@H]1C=CC(C2CCC(=O)O2)O1` (some centres not stated) [DIPLOBIFURANYLONE A], the Activity result is recorded as “Non-toxic”.

The values above are taken from ChEMBL document CHEMBL1157330, “Diplobifuranylones A and B, 5'-monosubstituted tetrahydro-2H-bifuranyl-5-ones produced by Diplodia corticola, a fungus pathogen of cork oak” (J Nat Prod, 2006).
